Results taken from patent US20170247335A1, “FLUORINATED PYRIDAZIN-3-ONES FOR THE USE THEREOF IN THE TREATMENT OF LUNG DISEASES” (UNIVERSITE DE REIMS CHAMPAGNE-ARDENNE, priority 2014, published 2017).

What was measured:
Format in all cases: biochemical
[1] = test system: PDE4 (recombinant human phosphodiesterases PDE4B2 and PDE4D); assay: PDE4 enzyme inhibition, colorimetric cAMP cleavage test (5'-nucleotidase, Biomol Green); details: for IC50: average of three independent determinations, non-linear regression, 60 min incubation, 2% DMSO, read-out: CI50 (inhibitory concentration 50)
Description: The activity of the PDE1 and PDE10 enzymes was also monitored.
(§1) The principle of the test is based on the cleavage of AMPc by the enzymes phosphodiesterases. The nucleotide-5′ which is sorted out during the reaction is itself cleaved by an enzyme 5′-nucleotidase into a nucleoside and a phosphate, the latter being quantified by using the reagent Biomol Green™.
(§2) The reaction is stopped by adding an amount of 100 microliters of the reagent Biomol Green™ and the plate is incubated for further 30 mins in order to allow development of the colour before reading the absorbance by means of a micro-plate reader.
The CI50s which were calculated represent the average value of three determinations which were achieved independently of each other.
A non-specific inhibitor of the PDE enzymes, 3-isobutyl-1-methylxanthin (IBMX) corresponds to the control.

PDE1 = PDE1 enzyme inhibition, same colorimetric test; details: at a concentration of 50 μM of compound
Description: (§3) In order to evaluate the action of the compounds (Ic), (Ig) and (Ii) according to the invention, the activity of different sub-types of phosphodiesterases, either of type 4 or not, was tested in vitro by using a kit adapted to the recombinant isoforms of human phosphodiesterases PDE4B2 and PDE4D coded by Escherichia coli. The activity of the PDE1 and PDE10 enzymes was also monitored.
as §1
(§4) The PDE enzymes are incubated on microplates in the presence of AMPc, 5′-nucleotidase, in the presence of an inhibitor, more particularly corresponding to the compound (Ic), (Ig) or (Ii) according to the invention, or in the absence of any inhibitor (control), and this for a period of the order of 60 mins.
as §2
The study of the inhibition of the PDE enzymes by the compound (Ic), (Ig) or (Ii) according to the invention was carried out by testing […] different concentrations (500 μM, 50 μM, 5 μM and 0.5 μM) of said compounds (Ic), (Ig) or (Ii).

PDE10 = PDE10 (Homo sapiens, UniProt Q9Y233); assay: PDE10 enzyme inhibition, same colorimetric test; details: read-out: percentage of inhibition towards PDE10
Description: as §3, §1, §4
The reaction is stopped by adding an amount of 100 microliters of the reagent Biomol Green™ and the plate is incubated for further 30 mins in order to allow development of the colour before reading the absorbance by means of a micro-plate reader. […]

[2] = at a concentration of 50 μM of compound

Sequence of PDE10 (Q9Y233 whole entry): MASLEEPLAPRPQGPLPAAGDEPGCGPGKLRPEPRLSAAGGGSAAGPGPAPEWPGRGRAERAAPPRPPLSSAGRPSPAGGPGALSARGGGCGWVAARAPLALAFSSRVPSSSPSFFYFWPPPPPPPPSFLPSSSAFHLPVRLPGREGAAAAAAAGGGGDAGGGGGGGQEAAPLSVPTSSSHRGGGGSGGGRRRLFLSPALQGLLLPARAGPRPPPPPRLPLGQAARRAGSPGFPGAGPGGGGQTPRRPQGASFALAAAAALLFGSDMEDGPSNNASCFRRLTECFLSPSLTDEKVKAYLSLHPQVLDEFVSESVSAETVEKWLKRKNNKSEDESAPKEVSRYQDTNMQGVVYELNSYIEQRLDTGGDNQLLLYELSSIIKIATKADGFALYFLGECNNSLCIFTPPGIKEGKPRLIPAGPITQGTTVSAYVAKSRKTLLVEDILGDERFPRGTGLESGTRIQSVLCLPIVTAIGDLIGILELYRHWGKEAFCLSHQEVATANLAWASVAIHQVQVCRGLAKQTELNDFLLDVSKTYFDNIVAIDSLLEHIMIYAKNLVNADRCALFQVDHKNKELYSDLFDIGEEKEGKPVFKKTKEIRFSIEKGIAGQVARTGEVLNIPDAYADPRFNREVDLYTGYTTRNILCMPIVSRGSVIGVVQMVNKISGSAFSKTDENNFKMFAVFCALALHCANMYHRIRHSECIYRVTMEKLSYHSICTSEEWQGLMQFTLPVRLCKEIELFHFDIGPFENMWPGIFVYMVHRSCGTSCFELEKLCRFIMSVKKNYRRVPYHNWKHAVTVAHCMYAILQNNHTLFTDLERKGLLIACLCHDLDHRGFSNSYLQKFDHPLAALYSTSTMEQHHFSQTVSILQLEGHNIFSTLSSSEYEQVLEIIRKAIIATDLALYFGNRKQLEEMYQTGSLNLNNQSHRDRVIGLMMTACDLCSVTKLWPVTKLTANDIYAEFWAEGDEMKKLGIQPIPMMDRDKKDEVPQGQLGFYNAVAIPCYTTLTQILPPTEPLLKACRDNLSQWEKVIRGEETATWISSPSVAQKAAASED

inhibition percentage of PDE4 [1, 2] [%] | IC50 [1] [µM] | inhibition of PDE1 (PDE1) [%] | inhibition percentage of PDE4 ([1]; at a 5 μM concentration of compound) [%] | inhibition at 50 µM (PDE10) [%] | SMILES
45 | 15 | 0 |  |  | Cc1ccc(-c2cc(C(F)(F)F)c(=O)n(-c3ccccc3)n2)cc1 [compound (Ig), 4-(trifluoromethyl)-2-phenyl-6-(p-tolyl)pyridazin-3(2H)-one]
 | 0.25 | 0 | 56 | 9 | COc1cc(-c2cc(C(F)(F)F)c(=O)[nH]n2)ccc1OC(F)F [compound (Ii), 6-(4′-(difluoromethoxy)-3′-methoxy-phenyl)-4-(trifluoromethyl)pyridazin-3(2H)-one]
74 | 8.1 | 0 |  |  | COc1ccc(-c2cc(C(F)(F)F)c(=O)[nH]n2)cc1OC [compound (Ic), 4-(trifluoromethyl)-6-(3′,4′-dimethoxyphenyl)pyridazin-3(2H)-one]
